Laboratory results published in US10045968B2, “Bicyclic compound, production and use thereof” (TOBIRA THERAPEUTICS, INC., priority 2001, dated 2018).

target: T1, human CCR5 (Homo sapiens, UniProt P51681); assay: Inhibition of [125I]-RANTES binding to CCR5/CHO cells (CCR5 antagonist activity); settings: 40 min, test compound 1 μM, 100 pM [125I]-RANTES as ligand, room temperature, read-out: Binding Inhibitory Ratio (%)
T1 construct: expressed in transfected cells; host or cells: CHO-K1 cells, stably transfected with pCKR5 (pcDNA3.1 backbone), Geneticin-selected
Protocol: (1) Cloning of Human CCR5 Chemokine Receptor Cloning of CCR5 gene was conducted from human spleen cDNA by PCR method. Using cDNA (0.5 ng) from spleen (Toyobo, QUICK-Clone cDNA) as a genetic template, primer sets prepared by referring to CCR5 gene nucleotide sequence described by Samson et al. (Biochemistry 35 (11), 3362-3367 (1996), i.e., (2) Preparation of Expression Plasmid of Human CCR5 […] The DNA fragments and an expression plasmid for animal cells pcDN A3.1 (Funakoshi), which was previously digested by XbaI and BamHI, were mixed and ligated by DNA Ligation Kit Ver. 2 (Takara Shuzo). Transformation of E. coli JM109 competent cells (Takara Shuzo) gave plasmid pCKR5. (3) Introduction of the Human CCR5 Expression Plasmid into CHO-K1 Cells and Expression Thereof […] The cells were washed with PBS (Lifetech Oriental), centrifuged (1000 rpm, 5 minutes), and resuspended in PBS. The DNA was introduced into the cells using Gene Pulser (BioRad) according to the following conditions. […] The cells were diluted to a concentration of 10^4 cells/ml, and inoculated in 96 well plate (Becton Dickinson), to obtain Geneticin-resistant cells. The Geneticin-resistant cells ware grown in 96 well plate (Becton Dickinson), and CCR5 expressing cells were selected from the resistant cells. Namely, in an assay buffer, (Ham F12 medium containing 0.5% BSA, and 20 mM HEPES (Wako Pure Chemical Ind., pH 7.2)), containing 200 pM [^125I]-RANTES (Amersham) as a ligand, the cells were subjected to binding reaction at room temperature for 40 minutes. The well plate containing the cells was washed with ice-cooled PBS, added with 1M NaOH in an amount of 50 μl/well and stirred. The cells to which the ligand bound specifically, i.e., CCR5/CHO cells, were selected by measurement of radioactivity by γ-counter. (4) Evaluation of Compounds Based on CCR5 Antagonist Activity The CCR5/CHO cells were inoculated in 96 well microplate at a concentration of 5×10^4 cells/well, and grown for 24 hours. After removal of the medium by aspiration, to each well was added an assay buffer containing a test compound (1 μM), and (^125I)/RANTES (Amersham) used as a ligand at a concentration of 100 pM. The mixture was subjected to the reaction at room temperature for 40 minutes. After removal of the assay buffer by aspiration, each well was washed with cooled PBS twice. Then, 200 μl MicroScint 20 (Packerd) was added to each well, and the radioactivity of each well was measured by TopCount (Packard). According to the method above, inhibitory ratios to CCR5 binding of the test compounds were determined.

T1 sequence (P51681 whole entry): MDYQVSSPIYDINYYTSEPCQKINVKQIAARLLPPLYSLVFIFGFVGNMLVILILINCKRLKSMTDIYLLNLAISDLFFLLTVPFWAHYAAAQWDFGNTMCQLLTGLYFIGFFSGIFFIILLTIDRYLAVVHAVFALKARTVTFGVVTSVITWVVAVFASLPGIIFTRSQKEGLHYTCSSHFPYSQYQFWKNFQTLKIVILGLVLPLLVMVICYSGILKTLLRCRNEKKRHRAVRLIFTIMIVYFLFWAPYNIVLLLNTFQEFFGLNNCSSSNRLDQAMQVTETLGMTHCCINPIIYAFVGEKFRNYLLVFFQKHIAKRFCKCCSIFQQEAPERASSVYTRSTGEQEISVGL

SMILES	inhibition at 1 µM [%]
CCCCOCCOc1ccc(-c2ccc3c(c2)C=C(C(=O)Nc2ccc([S+]([O-])Cc4cncn4CCC)cc2)CCCN3c2ccccc2)cc1 (centres unmarked) [Compound 35, 8-[4-(2-butoxyethoxy)phenyl]-1-phenyl-N-[4-[[[1-propylimidazol-5-yl]methyl]sulfinyl]phenyl]-1,2,3,4-tetrahydro-1-benzoazocine-5-carboxamide]	100
CCCCOCCOc1ccc(-c2ccc3c(c2)C=C(C(=O)Nc2ccc(SCc4c(C)ncn4CCC)cc2)CCCN3CC(C)C)cc1 [Compound 36, 8-[4-(2-butoxyethoxy)phenyl]-1-isobutyl-N-[4-[[[4-methyl-1-propylimidazol-5-yl]methyl]sulfanyl]phenyl]-1,2,3,4-tetrahydro-1-benzoazocine-5-carboxamide]	97
CCCCOCCOc1ccc(-c2ccc3c(c2)C=C(C(=O)Nc2ccc([S+]([O-])Cc4c(C)ncn4CCC)cc2)CCCN3CC(C)C)cc1 (centres unmarked) [Compound 37, 8-[4-(2-butoxyethoxy)phenyl]-1-isobutyl-N-[4-[[[4-methyl-1-propylimidazol-5-yl]methyl]sulfinyl]phenyl]-1,2,3,4-tetrahydro-1-benzoazocine-5-carboxamide]	100
CCCCOCCOc1ccc(-c2ccc3c(c2)C=C(C(=O)Nc2ccc(SCc4cncn4CCC)c(C)c2)CCCN3CC(C)C)cc1 [Compound 38, 8-[4-(2-butoxyethoxy)phenyl]-1-isobutyl-N-[3-methyl-4-[[[1-propylimidazol-5-yl]methyl]sulfanyl]phenyl]-1,2,3,4-tetrahydro-1-benzoazocine-5-carboxamide]	94
CCCCOCCOc1ccc(-c2ccc3c(c2)C=C(C(=O)Nc2ccc([S+]([O-])Cc4cncn4CCC)c(C)c2)CCCN3CC(C)C)cc1 (centres unmarked) [Compound 39, 8-[4-(2-butoxyethoxy)phenyl]-1-isobutyl-N-[3-methyl-4-[[[1-propylimidazol-5-yl]methyl]sulfinyl]phenyl]-1,2,3,4-tetrahydro-1-benzoazocine-5-carboxamide]	99
CCCCOCCOc1ccc(-c2ccc3c(c2)C=C(C(=O)Nc2ccc(CN(C)C4CCOCC4)cc2)CCCN3CC(C)C)cc1 [Compound 42, 8-(4-(2-butoxyethoxy)phenyl)-1-isobutyl-N-(4-((methyl(tetrahydro-2H-pyran-4-yl)amino)methyl)phenyl)-1,2,3,4-tetrahydro-1-benzoazocine-5-carboxamide]	90
CCCCOCCOc1ccc(-c2ccc3c(c2)C=C(C(=O)Nc2ccc(SCc4nncn4CCC)cc2)CCCN3CC(C)C)cc1 [Compound 46, 8-[4-(2-butoxyethoxy)phenyl]-1-isobutyl-N-[4-[[(4-propyl-4H-1,2,4-triazol-3-yl)methyl]thio]phenyl]-1,2,3,4-tetrahydro-1-benzazocine-5-carboxamide]	99
CCCCOCCOc1ccc(-c2ccc3c(c2)C=C(C(=O)Nc2ccc([S+]([O-])Cc4nncn4CCC)cc2)CCCN3CCC)cc1 (centres unmarked) [Compound 50, 8-[4-(2-butoxyethoxy)phenyl]-1-propyl-N-[4-[[(4-propyl-4H-1,2,4-triazol-3-yl)methyl]sulfinyl]phenyl]-1,2,3,4-tetrahydro-1-benzazocine-5-carboxamide]	93

same assay, conditions: test compound 1 μM, 100 pM [125I]-RANTES as ligand, room temperature, 40 minutes

SMILES	Binding Inhibitory Ratio (%)
CCCOCCOc1ccc(-c2ccc3c(c2)C=C(C(=O)Nc2ccc([S@@+]([O-])Cc4cncn4CCC)cc2)CCCN3CCC)cc1.CS(=O)(=O)O [Compound 45, (S)-(−)-8-[4-(2-propoxyethoxy)phenyl]-1-propyl-N-[4-[[(1-propyl-1H-imidazol-5-yl)methyl]sulfinyl]phenyl]-1,2,3,4-tetrahydro-1-benzoazocine-5-carboxamide/methanesulfonate]	96

test system: not given; assay: not given; settings: not given

SMILES	melting point [°C]
CCCCOCCOc1ccc(-c2ccc3c(c2)C=C(C(=O)Nc2ccc(SCc4nccn4CCCC(=O)OCC)cc2)CCCN3CC(C)C)cc1 [Compound 33, ethyl 4-(2-(((4-(((8-(4-(2-butoxyethoxy)phenyl)-1-isobutyl-1,2,3,4-tetrahydro-1-benzoazocine-5-yl)carbonyl)amino)phenyl)sulfanyl)-methyl)imidazol-1-yl)butanoate]	130 to 131
CCCCOCCOc1ccc(-c2ccc3c(c2)C=C(C(=O)Nc2ccc(SCc4nncn4CCC)cc2)CCCN3CC(C)C)cc1 [Compound 46, 8-[4-(2-butoxyethoxy)phenyl]-1-isobutyl-N-[4-[[(4-propyl-4H-1,2,4-triazol-3-yl)methyl]thio]phenyl]-1,2,3,4-tetrahydro-1-benzazocine-5-carboxamide]	122 to 126
CCCCOCCOc1ccc(-c2ccc3c(c2)C=C(C(=O)Nc2ccc([S+]([O-])Cc4nncn4CCC)cc2)CCCN3CC(C)C)cc1 (centres unmarked) [Compound 47, 8-[4-(2-butoxyethoxy)phenyl]-1-isobutyl-N-[4-[[(4-propyl-4H-1,2,4-triazol-3-yl)methyl]sulfinyl]phenyl]-1,2,3,4-tetrahydro-1-benzazocin-5-carboxamide]	105 to 110
CCCCOCCOc1ccc(-c2ccc3c(c2)C=C(C(=O)Nc2ccc([S+]([O-])Cc4nncn4CCC)cc2)CCCN3CCC)cc1 (centres unmarked) [Compound 51, 8-[4-(2-butoxyethoxy)phenyl]-1-propyl-N-[4-[[(4-propyl-4H-1,2,4-triazol-3-yl)methyl]sulfinyl]phenyl]-1,2,3,4-tetrahydro-1-benzazocine-5-carboxamide]	167 to 170
CCCCOCCOc1ccc(-c2ccc3c(c2)C=C(C(=O)Nc2ccc([S+]([O-])Cc4nccn4CCCC(=O)OCC)cc2)CCCN3CC(C)C)cc1 (centres unmarked) [Compound 54, ethyl 4-(2-(((4-(((8-(4-(2-butoxyethoxy)phenyl)-1-isobutyl-1,2,3,4-tetrahydro-1-benzazocine-5-yl)carbonyl)amino)phenyl)sulfinyl)methyl)imidazol-1-yl)butanoate]	133.5 to 134.5
